Species: Rattus norvegicus
Test: Open TG-GATES - Regimen: Daily Repeat
Type: toxicity, organism-based, Sprague-Dawley
Set-up: regimen Daily Repeat, gender Male, age 6 weeks
Conditions: in vivo, po, 10 mg/kg, route gavage, dose level Low; for APTT / Bas / Eos / Fbg / Hb / Ht / Lym / MCH / MCHC / MCV / Mono / Neu / PT / Plat / RBC / Ret / WBC: tissue Blood; for KIDNEY_L / KIDNEY_R / KIDNEY_TOTAL: tissue Kidney; for LIVER: tissue Liver; for A/G / ALP / ALT / AST / BUN / CRE / Ca / Cl / DBIL / GLC / IP / K / LDH / Na / PL / RALB / TBIL / TC / TG / TP / gamma-GTP: tissue Plasma

For CCCc1cc(=O)[nH]c(=S)[nH]1 [PROPYLTHIOURACIL], the TERMINAL_BW (72 h, time 3 day) was 207 g, the APTT (72 h, time 3 day) was 15.4 s and the Bas (72 h, time 3 day) was 0%. For the same compound, the Eos (72 h, time 3 day) was 0%, the Fbg (72 h, time 3 day) was 238.6 mg/dL and the Hb (72 h, time 3 day) was 13.5 g/dL. The Ht (72 h, time 3 day) was 40.4%, the Lym (72 h, time 3 day) was 75.2% and the MCH (72 h, time 3 day) was 21.4 pg. For the same compound, the MCHC (72 h, time 3 day) was 33.3%, the MCV (72 h, time 3 day) was 64.3 fL and the Mono (72 h, time 3 day) was 7.4%. The Neu (72 h, time 3 day) was 17.4%, the PT (72 h, time 3 day) was 12.4 s and the Plat (72 h, time 3 day) was 93.7 x10_4/uL. The RBC (72 h, time 3 day) was 629.4 x10_4/ul, the Ret (72 h, time 3 day) was 6.6% and the WBC (72 h, time 3 day) was 124.3 x10_2/uL. It also gave a KIDNEY_L (72 h, time 3 day) of 0.9 g, a KIDNEY_R (72 h, time 3 day) of 0.9 g and a KIDNEY_TOTAL (72 h, time 3 day) of 1.8 g. It also gave an LIVER (72 h, time 3 day) of 10 g, an A/G (72 h, time 3 day) of 2 and an ALP (72 h, time 3 day) of 1039.8 IU/L. It also gave an ALT (72 h, time 3 day) of 30.4 IU/L, an AST (72 h, time 3 day) of 54.4 IU/L and a BUN (72 h, time 3 day) of 20 mg/dL. The CRE (72 h, time 3 day) was 0.5 mg/dL, the Ca (72 h, time 3 day) was 11.2 mg/dL and the Cl (72 h, time 3 day) was 105.8 meq/L. The DBIL (72 h, time 3 day) was 0 mg/dL, the GLC (72 h, time 3 day) was 185.4 mg/dL and the IP (72 h, time 3 day) was 7.1 mg/dL. It also gave a K (72 h, time 3 day) of 4.7 meq/L, an LDH (72 h, time 3 day) of 81.2 IU/L and a Na (72 h, time 3 day) of 138 meq/L. It also gave a PL (72 h, time 3 day) of 161.4 mg/dL, an RALB (72 h, time 3 day) of 3.9 g/dL and a TBIL (72 h, time 3 day) of 0.3 mg/dL. The TC (72 h, time 3 day) was 97.6 mg/dL, the TG (72 h, time 3 day) was 87.4 mg/dL and the TP (72 h, time 3 day) was 5.9 g/dL. For the same compound, the gamma-GTP (72 h, time 3 day) was 2 IU/L, the TERMINAL_BW ([…], time 7 day) was 233.5 g and the TERMINAL_BW ([…], time 14 day) was 245.3 g. The TERMINAL_BW ([…], time 28 day) was 243.1 g, the APTT ([…], time 7 day) was 15.3 s and the Bas ([…], time 7 day) was 0%. It also gave an Eos ([…], time 7 day) of 0.2%, a Fbg ([…], time 7 day) of 252.2 mg/dL and a Hb ([…], time 7 day) of 13.9 g/dL. For the same compound, the Ht ([…], time 7 day) was 41.5%, the Lym ([…], time 7 day) was 86.6% and the MCH ([…], time 7 day) was 21 pg. The MCHC ([…], time 7 day) was 33.4%, the MCV ([…], time 7 day) was 62.8 fL and the Mono ([…], time 7 day) was 6.6%. For the same compound, the Neu ([…], time 7 day) was 6.6%, the PT ([…], time 7 day) was 12.6 s and the Plat ([…], time 7 day) was 117.2 x10_4/uL. For the same compound, the RBC ([…], time 7 day) was 662.4 x10_4/ul, the Ret ([…], time 7 day) was 4% and the WBC ([…], time 7 day) was 116 x10_2/uL. It also gave an APTT ([…], time 14 day) of 16.4 s, a Bas ([…], time 14 day) of 0% and an Eos ([…], time 14 day) of 0.4%. The Fbg ([…], time 14 day) was 194.6 mg/dL, the Hb ([…], time 14 day) was 14.7 g/dL and the Ht ([…], time 14 day) was 43.7%. For the same compound, the Lym ([…], time 14 day) was 90.6%, the MCH ([…], time 14 day) was 20.6 pg and the MCHC ([…], time 14 day) was 33.7%. It also gave an MCV ([…], time 14 day) of 61.1 fL, a Mono ([…], time 14 day) of 3.8% and a Neu ([…], time 14 day) of 5.2%. The PT ([…], time 14 day) was 14 s, the Plat ([…], time 14 day) was 101.1 x10_4/uL and the RBC ([…], time 14 day) was 715.2 x10_4/ul. For the same compound, the Ret ([…], time 14 day) was 1.3%, the WBC ([…], time 14 day) was 120.9 x10_2/uL and the APTT ([…], time 28 day) was 15.2 s. It also gave a Bas ([…], time 28 day) of 0%, an Eos ([…], time 28 day) of 1.6% and a Fbg ([…], time 28 day) of 176.8 mg/dL. The Hb ([…], time 28 day) was 16.3 g/dL, the Ht ([…], time 28 day) was 48.4% and the Lym ([…], time 28 day) was 85.4%. It also gave an MCH ([…], time 28 day) of 19.3 pg, an MCHC ([…], time 28 day) of 33.7% and an MCV ([…], time 28 day) of 57.5 fL. The Mono ([…], time 28 day) was 4.8%, the Neu ([…], time 28 day) was 8.2% and the PT ([…], time 28 day) was 14.8 s. For the same compound, the Plat ([…], time 28 day) was 83 x10_4/uL, the RBC ([…], time 28 day) was 843.2 x10_4/ul and the Ret ([…], time 28 day) was 0.7%. The WBC ([…], time 28 day) was 61.3 x10_2/uL, the KIDNEY_L ([…], time 7 day) was 1 g and the KIDNEY_R ([…], time 7 day) was 1 g. For the same compound, the KIDNEY_TOTAL ([…], time 7 day) was 1.9 g, the KIDNEY_L ([…], time 14 day) was 0.9 g and the KIDNEY_R ([…], time 14 day) was 0.9 g. It also gave a KIDNEY_TOTAL ([…], time 14 day) of 1.7 g, a KIDNEY_L ([…], time 28 day) of 0.8 g and a KIDNEY_R ([…], time 28 day) of 0.8 g. It also gave a KIDNEY_TOTAL ([…], time 28 day) of 1.7 g, an LIVER ([…], time 7 day) of 12.4 g and an LIVER ([…], time 14 day) of 10.5 g. The LIVER ([…], time 28 day) was 7.9 g, the A/G ([…], time 7 day) was 1.8 and the ALP ([…], time 7 day) was 740.8 IU/L. The ALT ([…], time 7 day) was 27.6 IU/L, the AST ([…], time 7 day) was 48.8 IU/L and the BUN ([…], time 7 day) was 20.4 mg/dL. The CRE ([…], time 7 day) was 0.5 mg/dL, the Ca ([…], time 7 day) was 11.5 mg/dL and the Cl ([…], time 7 day) was 105.6 meq/L. The DBIL ([…], time 7 day) was 0.008 mg/dL, the GLC ([…], time 7 day) was 169.4 mg/dL and the IP ([…], time 7 day) was 7.2 mg/dL. It also gave a K ([…], time 7 day) of 4.9 meq/L, an LDH ([…], time 7 day) of 83.8 IU/L and a Na ([…], time 7 day) of 139.6 meq/L. For the same compound, the PL ([…], time 7 day) was 174.2 mg/dL, the RALB ([…], time 7 day) was 4.1 g/dL and the TBIL ([…], time 7 day) was 0.3 mg/dL. The TC ([…], time 7 day) was 108 mg/dL, the TG ([…], time 7 day) was 116.6 mg/dL and the TP ([…], time 7 day) was 6.4 g/dL. The gamma-GTP ([…], time 7 day) was 1.4 IU/L, the A/G ([…], time 14 day) was 1.7 and the ALP ([…], time 14 day) was 568 IU/L. It also gave an ALT ([…], time 14 day) of 27 IU/L, an AST ([…], time 14 day) of 52.8 IU/L and a BUN ([…], time 14 day) of 26.6 mg/dL. For the same compound, the CRE ([…], time 14 day) was 0.7 mg/dL, the Ca ([…], time 14 day) was 11.1 mg/dL and the Cl ([…], time 14 day) was 106.4 meq/L. The DBIL ([…], time 14 day) was 0.006 mg/dL, the GLC ([…], time 14 day) was 178.6 mg/dL and the IP ([…], time 14 day) was 6.3 mg/dL. The K ([…], time 14 day) was 4.3 meq/L, the LDH ([…], time 14 day) was 68.4 IU/L and the Na ([…], time 14 day) was 141 meq/L. For the same compound, the PL ([…], time 14 day) was 152.6 mg/dL, the RALB ([…], time 14 day) was 4.2 g/dL and the TBIL ([…], time 14 day) was 0.2 mg/dL. The TC ([…], time 14 day) was 96.4 mg/dL, the TG ([…], time 14 day) was 59.8 mg/dL and the TP ([…], time 14 day) was 6.7 g/dL. It also gave a gamma-GTP ([…], time 14 day) of 2.2 IU/L, an A/G ([…], time 28 day) of 2 and an ALP ([…], time 28 day) of 628 IU/L. The ALT ([…], time 28 day) was 35.4 IU/L, the AST ([…], time 28 day) was 63.4 IU/L and the BUN ([…], time 28 day) was 25.8 mg/dL. It also gave a CRE ([…], time 28 day) of 0.7 mg/dL, a Ca ([…], time 28 day) of 10.5 mg/dL and a Cl ([…], time 28 day) of 108.6 meq/L. It also gave a DBIL ([…], time 28 day) of 0.056 mg/dL, a GLC ([…], time 28 day) of 161 mg/dL and an IP ([…], time 28 day) of 5.7 mg/dL. It also gave a K ([…], time 28 day) of 4.2 meq/L, an LDH ([…], time 28 day) of 62.6 IU/L and a Na ([…], time 28 day) of 141.2 meq/L. The PL ([…], time 28 day) was 150.6 mg/dL, the RALB ([…], time 28 day) was 4.3 g/dL and the TBIL ([…], time 28 day) was 0.2 mg/dL. It also gave a TC ([…], time 28 day) of 100.8 mg/dL, a TG ([…], time 28 day) of 44.6 mg/dL and a TP ([…], time 28 day) of 6.5 g/dL. It also gave a gamma-GTP ([…], time 28 day) of 3.2 IU/L.

Reference: ChEMBL document CHEMBL3885861, “Open TG-GATES”
